27 molecules from patent US20080305534A1, “Novel Glycerol Dehydrogenase, Gene Therefor, and Method of Utilizing the Same” (priority 2004, published 2008) can be followed below.

B1: RCG: glycerol dehydrogenase derived from Cellulomonas sp. strain KNK0102, amino acid sequence SEQ ID NO: 1 (protein, listed as Cellulomonas sp.)
chain: MSEVPVRTLISPLRYVQARGALTRLGEFVRPIGTKPLLVADDVVWGIVQDTVAVSFQEQDLPRHRTGFGTYATAAEVDRLAREIDELGADVIVGIGGGSTIDAVKAAGHLRGIRWVSVPTVASTDAPCSALSVIYTEDGAFEEYRFFPHNPDLVLVDTGLVANAPVKFLVAGVGDALATWIEARAVAEANASTMAGGLPLVTGTALAQLSWDILWENALPAIDAVKNHLVTPAVEKVVEANTLLSGLGFESGGLAAAHAIHNGLTAAPQTHGLTHGQKVNIGSVTQLVLEGAPTEEIEEFVRFTTRVGLPNTLTEIGLTADDVHDLTRVAEAATAEGETIHAMPFPVRVPELVDALRSIEGFSRRVRAEAGLPEPVKHTAH

The subject of the first series is RCG. The series can be described thus: Substrate specificity of RCG (oxidation activity with NAD+). The format is biochemical, Cellulomonas sp. strain KNK0102. Particulars: pH 8. Here is the method:
Oxidation activity was determined by adding 2 mM of coenzyme NAD^+, 10 mM of a compound shown in Table 2, and the enzyme solution to a 100 mM phosphate buffer (pH 8.0) to react at 30° C. for 3 min. followed by the measurement of an increase in absorbance at the wavelength of […]. In Table 2, relative activities are summarized, wherein the activity for glycerol is 100.
In the case of `OCCO` [ethylene glycol], the Relative activity is reported as 8%.
Still for that read-out and setting: under `OCCCCO` [1,4-butanediol] stands 1%.

Staying with this series, now noted: substrate 10 mM, 2 mM NAD+, 100 mM phosphate buffer pH 8.0, 30° C., 3 min; activity for glycerol is 100.
As to `OCCCO` [1,3-propanediol], the Relative activity was found to be 1%.
On the same count and under the same terms, under 2-butanol stands 0%; under `OCC(O)CO` [glycerol], 100%.
The same measure, in the same setting: under `CCC(O)CO` (stereo not shown) [1,2-butanediol] stands 129%.
Same read-out and setting: the figure for `CCCCC(O)CO` (stereo not shown) [1,2-hexanediol] is 26%.
With butanol, the Relative activity was 0%.
On the same count and under the same terms, under 1-amino-2-propanol stands 12%; under `CCCC(O)CO` (stereo not shown) [1,2-pentanediol], 153%.
The same measure, in the same setting: the figure for `CC(O)CCO` (stereo not shown) [1,3-butanediol] is 3%.
Turning to `OCC(O)CS` (stereo not shown) [3-mercapto-1,2-propanediol], the Relative activity came out at 129%.
Same read-out and setting: the figure for `CCO` [ethanol] is 0%.
Still for that read-out and setting: the figure for `OCCC(O)CO` (stereo not shown) [1,2,4-butanetriol] is 21%; for `OC(CCl)CCl` [1,3-dichloro-2-propanol] it is 0%.
The same measure, in the same setting: the figure for `OCC(O)COc1ccccc1` (stereo not shown) [3-phenoxy-1,2-propanediol] is 9%; for `CO` [methanol] it is 0%; for `CCCO` [propanol] it is 0%.
As to `OCC(O)CCl` (stereo not shown) [3-chloro-1,2-propanediol], the Relative activity came to 63%.
Same read-out and setting: the figure for `CC(O)CO` (stereo not shown) [1,2-propanediol] is 142%.
As to `CSCC(O)CO` (stereo not shown) [3-methylthio-1,2-propanediol], the Relative activity is listed as 120%.
On to `OCC(O)CBr` (stereo not shown) [3-bromo-1,2-propanediol], for which the Relative activity stood at 58%.
The same measure, in the same setting: under `CC(O)CCCO` (stereo not shown) [1,4-pentanediol] stands 0%; under `COCC(O)CO` (stereo not shown) [3-methoxy-1,2-propanediol], 39%.
Same read-out and setting: under `CC(C)O` [isopropanol] stands 0%; under `CC(O)C(C)O` (stereo not shown) [2,3-butanediol], 64%.

Test system in the next series: not listed separately
The series can be described thus: Action of RCG: stereoselective reduction of 1-chloro-3-hydroxyacetone. It counts as biochemical. Particulars: reduction of 1-chloro-3-hydroxyacetone using NADH as a coenzyme. Here is the method:
Furthermore, optical purity of the resulting 3-chloro-1,2-propanediol was determined by high performance liquid chromatography after tosylation.
Consider B1, for which the “optical purity of (S)-3-chloro-1,2-propanediol formed” value amounted to 99.3 % e.e.

Test system in another series: not listed separately
Kind of series: Optimum pH of RCG for reduction (activity to reduce dihydroxyacetone). The format is biochemical. Conditions: 10 mM dihydroxyacetone, 0.167 mM NADH, 30° C., pH 4 to pH 9. Here is the method:
In order to study the optimum pH of RCG for reduction, the activity to reduce dihydroxyacetone at pH 4 to pH 9 was determined. The enzyme activity was determined by adding 10 mM of the substrate dihydroxyacetone, 0.167 mM of coenzyme NADH, 50 mM of KCl, 50 mM of NH4Cl, and the enzyme solution to a buffer to react at 30° C. for 3 min. followed by the measurement of a decrease in absorbance at […]. As buffers, 100 mM acetic acid buffers (pH4.0 to pH 6.0), 100 mM phosphate buffers (pH 6.0 to pH 8.0), and 100 mM Tris-HCl buffers (pH 8.0 to 9.0) were used to measure the activity at pH 4 to pH 9.
With B1, the “optimum pH for reduction” value was 6.0.

Test system in another series: not listed separately
Kind of series: Optimum pH of RCG for oxidation (activity to oxidize glycerol). The format is biochemical. Particulars: 0.1 M glycerol, 2 mM NAD+, 30° C., pH 6 to pH 11. Here is the method: In order to study the optimum pH of RCG for oxidation, the activity to oxidize glycerol at pH6 to pH 11 was determined. The enzyme activity was determined by adding 0.1 M of the substrate glycerol, 2 mM of coenzyme NAD^+, 50 mM of KCl, 50 mM of NH4Cl, and the enzyme solution to a buffer to react at 30° C. for 3 min. followed by the measurement of an increase in absorbance at […]. As buffers, 100 mM phosphate buffers (pH 6.0 to pH 8.0), 100 mM Tris-HCl buffers (pH 8.0 to 9.0), and 100 mM carbonic acid buffers (pH 9.0 to pH 11.0) were used to measure the activity at pH 6 to pH 11.
B1: the “optimum pH for oxidation” value is given as 9.0.

Test system in another series: not given
Assay: not given
It counts as biochemical.
Settings: not given
Here is the method: Herein, the expression “having resistance to 1-chloro-3-hydroxyacetone” means that when 1-chloro-3-hydroxyacetone is added to a solution containing the polypeptide (the enzyme) of the present invention at the final concentration of 0.25% and the mixture is incubated at 30° C. for 20 hrs. followed by the determination of the activity to reduce 1-chloro-3-hydroxyacetone under the conditions described above, the resulting activity is 80% or more, preferably 85% or more, more preferably 90% or more of the activity determined without the pretreatment.
Likewise, the expression “having resistance to 3-chloro-1,2-propanediol” means that when the activity to reduce 1-chloro-3-hydroxyacetone is determined after incubation at 30° C. for 20 hrs. in the presence of 1% of 3-chloro-1,2-propanediol, the resulting activity is 80% or more, preferably 90% or more, more preferably 95% or more of the activity determined without the pretreatment.
In order to study the stability of RCG to 1-chloro-3-hydroxyacetone and to 3-chloro-1,2-propanediol, 1-chloro-3-hydroxyacetone was added at the final concentration of 0.25% to the enzyme solution and incubated at 30° C. followed by the measurement of the activity to reduce 1-chloro-3-hydroxyacetone by using the above enzyme solution. […]
B1: the “stability to 1-chloro-3-hydroxyacetone” value was “very stable” and the “stability to 3-chloro-1,2-propanediol” value is recorded as “very stable”.
